Test results published in the NIST ThermoML archive (doi:10.1007/s10765-006-0056-z).

Assay: molar heat capacity at constant volume; xn = mol fraction of the nth substance listed
Settings: Fluid (supercritical or subcritical phases), Isochoric Heat Capacity Apparatus

CCCCCCCCCC [decane] + O=C=O
Settings	molar heat capacity at constant volume [J/K/mol]
467.19 K, Mass density=87 kg/m3, x1 = 0.095	706.83
467.97 K, Mass density=408.8 kg/m3, x1 = 0.178	487.71
468.76 K, Mass density=374.7 kg/m3, x1 = 0.095	336.34
468.76 K, Mass density=408.8 kg/m3, x1 = 0.178	486.42
470.72 K, Mass density=477.6 kg/m3, x1 = 0.095	326.31
471.2 K, Mass density=281.4 kg/m3, x1 = 0.095	360.93
471.69 K, Mass density=281.4 kg/m3, x1 = 0.095	359.81
471.89 K, Mass density=281.4 kg/m3, x1 = 0.095	358.48
473.25 K, Mass density=281.4 kg/m3, x1 = 0.095	350.91
474.61 K, Mass density=457.5 kg/m3, x1 = 0.178	456.77
475.97 K, Mass density=110.8 kg/m3, x1 = 0.095	594.8
476.12 K, Mass density=110.8 kg/m3, x1 = 0.095	599.07
476.33 K, Mass density=110.8 kg/m3, x1 = 0.095	591.07
476.36 K, Mass density=320.2 kg/m3, x1 = 0.095	342.64
476.56 K, Mass density=408.8 kg/m3, x1 = 0.178	472.21
476.75 K, Mass density=110.8 kg/m3, x1 = 0.095	590.53
476.94 K, Mass density=398.3 kg/m3, x1 = 0.095	336.82
477.33 K, Mass density=110.8 kg/m3, x1 = 0.095	594.8
477.52 K, Mass density=374.7 kg/m3, x1 = 0.095	337.73
477.52 K, Mass density=375 kg/m3, x1 = 0.178	493.12
477.81 K, Mass density=375 kg/m3, x1 = 0.178	495.64
478.2 K, Mass density=375 kg/m3, x1 = 0.178	491.03
478.49 K, Mass density=375 kg/m3, x1 = 0.178	492.57
479.84 K, Mass density=408.8 kg/m3, x1 = 0.178	471.47
481.77 K, Mass density=241 kg/m3, x1 = 0.095	380.35
481.96 K, Mass density=241 kg/m3, x1 = 0.095	378.38
482.02 K, Mass density=131.5 kg/m3, x1 = 0.095	517.93
482.41 K, Mass density=131.5 kg/m3, x1 = 0.095	521.08
483.31 K, Mass density=241 kg/m3, x1 = 0.095	370.32
483.37 K, Mass density=131.5 kg/m3, x1 = 0.095	528.44
485.04 K, Mass density=281.4 kg/m3, x1 = 0.095	352.45
